Measurements published in PubChem BioAssay AID179 (DTP/NCI, 2004).
pEC50, pIC50: −log10 of the molar value. Active and inactive are the calls of the source.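 Rule for the calls: active = compounds giving half or more protection of infected cells from virus-caused growth loss, again on retest; inactive = the rest.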

System: CEM cells HIV-1 protection, formazan growth assay
Test: NCI AIDS Antiviral Assay
Details: for pIC50: measured here: growth of uninfected CEM cells
Outline: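 Category rules: moderately active means at least 50% protection on retest, and confirmed active means 100% protection reproducibly. The underlying data came from a formazan growth assay in HIV-1-infected CEM cells.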

Row | SMILES | pEC50 | pIC50 | outcome
1 | Cc1cc2nc3ccc(=[N+](C)C)cc-3sc2cc1N | < 3.93 | 6.17 | –
2 | CCOC(=O)c1cc2c(nc1N)C(=O)CCCC2 | < 3.70 | 3.83 | –
3 | CN/N=C(/C=C/c1ccccc1)C(C)C | < 3.70 | < 3.70 | –
4 | CC(=O)OC[C@@H](COC(=O)/C=C/c1ccc(O)cc1)OC1OC(CO)C(O)C(O)C1O (some centres undefined) | – | – | inactive
5 | CC(C)c1ccccc1NC(=O)/C(Cl)=C1/Sc2ccccc2NC1=O | < 5.00 | < 5.00 | –
6 | O=c1[nH]nc(-c2ccccc2)n1/N=C/c1ccncc1 | < 3.70 | 4.28 | –
7 | O=C(O)c1cc2cccc(O)c2cc1O | < 3.70 | < 3.70 | –
8 | CCOC(=O)c1c(-c2cc(OC)c(OC)c(OC)c2)csc1NC(=O)c1ccccc1 | < 3.70 | 4.90 | –
9 | CCc1cccc(CC)c1NC1=CC(=O)C(=O)c2ccccc21 | < 4.63 | < 4.63 | –
10 | CS(=O)(=O)c1[nH]nc2[nH]c(=O)[nH]c(=O)c12 | < 3.70 | < 3.70 | –
11 | CCC(C)C(NC(=O)c1ccccc1SC(=O)CCCC[n+]1ccccc1)C(=O)O (centres undefined) | 4.63 | < 3.70 | –
12 | N#CC(C(=O)CCCC(=O)Nc1ccc(Cl)cc1Cl)c1ccc(Cl)cc1 (centres undefined) | – | – | inactive
13 | O=c1[nH]c2ccccc2c2oc(-c3ccccc3)nc12 | < 4.00 | < 4.00 | –
14 | O=C(Cc1ccccc1)NCCc1ccc(O)c(O)c1 | < 3.70 | 4.56 | –
15 | O=C1C2C3CC4C5C3C1C5C1(SCCS1)C42 (centres undefined) | – | – | inactive
16 | O=C(OCC(OC(=O)c1ccccc1)C1CC(C2(O)CCCCC2)C(=O)O1)c1ccccc1 (centres undefined) | < 4.30 | < 4.30 | –
17 | CC1(C)CCCCCC(O)C(O)CCC(C)(C)C1=O (centres undefined) | < 3.70 | < 3.70 | –
18 | O=C(O)CC(O)(CC(=O)O)C(=O)O | – | – | inactive
19 | COC(=O)[C@H](CCCN=C(N)N)NC(=O)CCCCCCCCCCNC(=O)c1cc(CNC2=NCCN2)cc(CNC2=NCCN2)c1 | < 4.00 | < 4.00 | –
20 | O=C(Cn1c2ccc(Br)cc2c2nc3ccccc3nc21)NC1CCCCC1 | < 4.00 | < 4.00 | –
21 | O=c1/c(=C\C=C\c2ccccc2)sc2n1CCN=2 | – | – | inactive
22 | Cc1c(N)c(C#N)c2n(C)c3ncccc3n2c1=O | < 3.70 | < 3.70 | –
23 | O=C(O)c1ccccc1/C=N/NC1=NCCCCN1 | < 3.70 | 3.85 | –
24 | CC(=O)C1C(c2ccccc2)C2(C)OC(=O)C(C#N)C12C (centres undefined) | – | – | inactive

Row | SMILES | pEC50 | pIC50 | outcome
25 | COc1ccccc1CO[C@]1(C)CNCC(C)(C)NC(=O)[C@@](C)(OCc2ccccc2OC)CNCC(C)(C)NC1=O | < 3.70 | < 3.70 | –
26 | CC(C)(C)OC(=O)/C=C/C(=O)O/C=C/[N+](=O)[O-] | < 3.70 | < 3.70 | –
27 | CC[C@H](OCc1ccccc1)/C(C)=C/C[C@@H](C)CO | < 4.56 | < 4.56 | –
28 | CCN(CC)c1cc(OCc2ccccc2)cc2c1[C@H]1COc3cc(OC)ccc3[C@H]1O2 | – | – | inactive
29 | CCOP(=O)(OCC)C(Cc1cn(S(=O)(=O)c2ccc(C)cc2)cn1)C(=O)O (centres undefined) | < 3.70 | < 3.70 | –
30 | O=C1N(Cc2ccccc2)[C@H]2CS(=O)(=O)C[C@@H]2N1Cc1ccccc1 | < 3.70 | < 3.70 | –
31 | N[C@@H]1c2c(I)sc(I)c2C(=O)[C@@H]1O | < 3.70 | 5.28 | –
32 | CCc1n[nH]c(=O)n1/N=C/c1c(O)ccc2ccccc12 | < 3.70 | < 3.70 | –
33 | CCOP(=O)(OCC)/C(C#N)=C/c1cnc(C)[nH]1 | < 3.70 | < 3.70 | –
34 | Cc1ccc(C2SCC(=O)N2c2ccc(-c3ccc(-n4c(-c5ccccc5)nc5ccccc5c4=O)cc3)cc2)cc1 (centres undefined) | < 3.72 | 4.45 | –
35 | Clc1cnc2cccc3c2c1C=CN3 | < 3.89 | 4.28 | –
36 | Cc1ccc(N(C(=O)CC(=O)NN)C(=O)c2ccccc2Cl)cc1 | < 3.57 | < 3.57 | –
37 | CC12CCC(=O)CC13CCC2OC(O)C3 (centres undefined) | – | – | inactive
38 | Cc1ccc(C(=O)N(C2CCCCC2)C2CCCCC2)cc1N=NN(C)C | < 4.71 | < 4.71 | –
39 | C[N+](C)(Cc1ccc(NC(=O)CCCC(=O)ON2C(=O)CCC2=O)cc1)c1ccccc1 | < 3.70 | 3.87 | –
40 | COc1cc2nc(/C=C/c3nc4cc(OC)c(OC)cc4[nH]3)[nH]c2cc1OC | < 3.70 | 4.24 | –
41 | Cc1ccc2nc(-c3ccc(C(C)(C)C)cc3)oc(=O)c2c1 | < 3.70 | 4.63 | –
42 | CC(C)=NNC(=O)CC(=O)N(C(=O)c1ccccc1Cl)c1ccc(C)cc1 | < 3.33 | < 3.33 | –
43 | COc1ccc(/C=C/C(=O)c2ccccc(=O)c2O)cc1 | < 4.20 | 5.47 | –
44 | COc1ccc(/C=C/CO)cc1OC | – | – | inactive
45 | COC(=O)C1CC(=O)N(C)c2sc(C)c(C)c2C1=O (centres undefined) | < 3.55 | 3.95 | –
46 | CCN(CC)c1ccc(N=Nc2ccc(-c3nc4cccnc4s3)cc2)cc1 | < 5.29 | < 5.29 | –
47 | COC(=O)C(=O)CC(=O)CCn1ncc(Cl)c(Cl)c1=O | < 3.11 | 5.39 | –
48 | CC(C)(C)C(=O)OCOP(=O)(OCOC(=O)C(C)(C)C)OCC1CCC(n2ccc(=O)[nH]c2=O)O1 (centres undefined) | 5.47 | 4.14 | –

Row | SMILES | pEC50 | pIC50 | outcome
49 | COC(=O)CCC(C)C1CCC2[C@@H]3CC[C@@H]4CC(O)CC[C@]4(C)C3CC[C@]12C (some centres undefined) | < 4.59 | < 4.59 | –
50 | CC(Cl)CN1COc2c3c(c4ccccc4c2C1)CN(CC(C)Cl)CO3 (centres undefined) | < 4.04 | 4.56 | –
51 | COc1ccc2c(c1)-c1nc(=O)n(CCCN(C)C)c3ccc([N+](=O)[O-])c(c13)N2 | < 6.00 | 6.45 | –
52 | O=C(CC(=O)c1cccnc1)NC(=O)c1ccccc1 | < 3.45 | < 3.45 | –
53 | O=Cc1c(C(=O)O)[nH]c(=O)[nH]c1=O | < 3.70 | < 3.70 | –
54 | CC(=O)N1C(=O)c2cc3ccccc3cc21 | < 3.70 | < 4.00 | –
55 | Cc1ccc(-c2cssc2=S)cc1 | < 3.70 | < 3.70 | –
56 | CN1C(=O)c2c(c3c4ccccc4n(C4OC(CO)C(O)C(O)C4O)c3c3[nH]c4ccccc4c23)C1=O (centres undefined) | < 3.70 | 5.41 | –
57 | CC(C)(C)C(C#N)(C#N)c1ccc(C(C#N)(C#N)C(C)(C)C)nn1 | – | – | inactive
58 | CCOC(=O)[C@@]1(C(C)=O)CC(C)=C(C)C[S@]1=O | < 3.70 | < 3.70 | –
59 | Cc1ccc(S(=O)(=O)c2c(N)c3nc4ccccc4n3c3nc4ccccc4nc23)cc1 | < 5.34 | < 5.34 | –
60 | BrC1=CC2C(C3C=CC2(Br)C32OCCO2)C12OCCO2 (centres undefined) | < 3.78 | < 3.78 | –
61 | O=S1(=O)CCCc2c1ccc1ccccc21 | < 3.70 | < 3.70 | –
62 | CC12CCC(c3no[n+]([O-])c31)C2(C)C (centres undefined) | < 3.70 | 3.96 | –
63 | CCOC(=O)C(C(=O)OCC)=C(N)C(Cl)(Cl)Cl | < 3.70 | 4.37 | –
64 | O=C1C=Cc2ccccc2/C1=C/c1[nH]c(=O)[nH]c1O | < 3.70 | 4.79 | –
65 | NC(CSSCC(NC(=O)OCc1ccccc1)C(=O)O)C(=O)O (centres undefined) | < 3.70 | < 3.70 | –
66 | COP1(=S)OCC(C(C)(C)C)CO1 (centres undefined) | < 4.24 | < 4.24 | –
67 | O=C(/C=C/c1ccccc1)c1cccs1 | < 3.70 | 5.43 | –
68 | COC(=O)c1ccc2cc(O)ccc2c1 | < 3.70 | 4.08 | –
69 | c1ccc(N=C(Nc2ccccc2)N2CCCCC2)cc1 | < 3.70 | 4.11 | –
70 | c1ccc(N2N=NC3C4CC(C5c6ccccc6C45)C32)cc1 (centres undefined) | – | – | inactive
71 | N#C/C(=C/Sc1ccccc1)C(=O)O | – | – | inactive
72 | NC(=O)C(=O)N/N=C(\CC1(O)C(=O)Nc2ccccc21)c1ccc2ccccc2c1 (centres undefined) | < 4.47 | < 4.47 | –

Row | SMILES | pEC50 | pIC50 | outcome
73 | O=C(OCc1ccccc1)N1C[C@@H](OCc2ccccc2)[C@@H](OCc2ccccc2)[C@H]1CO | < 3.70 | 4.97 | –
74 | CC1(C)OC(=O)C(=Cc2ccc3c(c2)OCO3)C(=O)O1 | < 3.89 | 3.96 | –
75 | C/C(=N\O)c1ccc2c3c(ccc([N+](=O)[O-])c13)CC2 | < 3.70 | 4.33 | –
76 | COC(=O)CC(=O)C[P+](c1ccccc1)(c1ccccc1)c1ccccc1 | < 3.26 | 4.37 | –
77 | Cc1ncc(CO)c(CO)c1S | < 3.70 | < 3.70 | –
78 | C/C(=C/C(=O)Nn1c(Cc2ccccc2)n[nH]c1=O)C(=O)O | < 3.70 | < 3.70 | –
79 | CCOC(=O)/C=C\SCCC(=O)O | < 2.91 | < 2.91 | –
80 | CNS(=O)(=O)NN(C)S(=O)(=O)c1ccc(Cl)cc1 | < 3.68 | 3.69 | –
81 | Cc1ccc(NC(=O)CC(=O)n2nc(C)c(N=Nc3cccc(C)c3)c2C)cc1 | < 3.70 | < 3.70 | –
82 | O=C1C=CC(=O)c2c1ccc1c3ccccc3n(-c3cccc([N+](=O)[O-])c3)c21 | < 4.00 | 5.32 | –
83 | C[N+]1(CCCCN2c3ccccc3Sc3cc(N=[N+]=[N-])ccc32)CCN(C(=O)CCNC(=O)Cc2ccc(C(=O)c3ccccc3)cc2)CC1 | < 4.00 | 4.81 | –
84 | Fc1ccc(C2SCc3nc4ccccc4n32)c(F)c1 (centres undefined) | – | – | inactive
85 | CC(=O)Nc1ccc(/C=N\N2C(=O)c3ccccc3C2=O)cc1 | < 4.21 | < 4.21 | –
86 | CCOP(=O)(OCC)C1CC(n2cc(C)c(=O)[nH]c2=O)OC1CO (centres undefined) | < 3.70 | 3.74 | –
87 | COCCN1CC(=O)N2Cc3ccccc3CN2C(=O)C1 | – | < 3.70 | inactive
88 | COc1cc(-c2nnc3n2NC=C(C(=O)O)S3)cc(OC)c1OC | < 3.59 | < 3.59 | –
89 | Cc1cccc(N=Nc2c(C)nn(C(=O)CC(=O)Nc3ccc(Cl)cc3)c2C)c1 | < 3.70 | 3.91 | –
90 | O=[N+]([O-])c1cnn(C2=CNc3ccccc3N=C2)c1 | < 5.13 | < 5.13 | –
91 | CCOP(=O)(OCC)C(N)c1ccc(OC)cc1 (centres undefined) | < 3.09 | < 3.09 | –
92 | O=C(CCl)Nc1ccc(C(=O)N/N=C/c2ccc(Cl)cc2)cc1 | < 3.70 | 5.56 | –
93 | CCN(CC)OC(=O)/C=C/c1ccccc1 | – | – | inactive
94 | CNC(=O)O/N=C/c1cccc(/C=N/OC(=O)NC)c1 | < 3.70 | < 3.70 | –
